Experimental data taken from the NIST ThermoML archive (doi:10.1021/acs.jced.6b00655).
Values joined by “and” are separate entries in the source; they are usually repeats but may differ in a detail not shown here. Equal entries are not always repeated. ± gives the expanded uncertainty stated by the source.

Legend:
[1] = 343.15 K; 100 kPa; Liquid; Vibrating tube method
[2] = xn = mol fraction of the nth substance listed; conditions: 100 kPa, Liquid, Vibrating tube method

CCCC[N+](C)(CCCC)CCCC.O=S(=O)([N-]S(=O)(=O)C(F)(F)F)C(F)(F)F [tributylmethylammonium bis((trifluoromethyl)sulfonyl)imide]
Conditions | mass density
[1] | 1224.15 ± 10 kg/m3 and 1224.18 ± 10 kg/m3

CCCC[N+](C)(CCCC)CCCC.O=S(=O)([N-]S(=O)(=O)C(F)(F)F)C(F)(F)F [tributylmethylammonium bis((trifluoromethyl)sulfonyl)imide] + Cc1ccc(C)cc1
[2], 343.15 K
Conditions | mass density [kg/m3]
x2 = 0 | 1224.15 ± 10
x2 = 0.106 | 1209.82 ± 10
x2 = 0.257 | 1187.07 ± 10
x2 = 0.37 | 1163.42 ± 10
x2 = 0.459 | 1143.06 ± 10
x2 = 0.552 | 1114.23 ± 11
x2 = 0.7 | 1057.46 ± 11

CCCC[N+](C)(C)C.O=S(=O)([N-]S(=O)(=O)C(F)(F)F)C(F)(F)F [butyltrimethylammonium bis(trifluoromethylsulfonyl)imide] + Cc1ccc(C)cc1
[2], 343.15 K
Conditions | mass density [kg/m3]
x2 = 0 | 1348.32 ± 10
x2 = 0.056 | 1341.21 ± 10
x2 = 0.096 | 1332.06 ± 10
x2 = 0.196 | 1307.74 ± 10
x2 = 0.307 | 1273.97 ± 11
x2 = 0.414 | 1235.93 ± 11
x2 = 0.486 | 1205.85 ± 11

CCCC[N+]1(C)CCCC1.N#CN=C=[N-] [1-butyl-1-methylpyrrolidinium dicyanamide] + Cc1cccc(C)c1
[2], 283.15 K
Conditions | mass density [kg/m3]
x2 = 0 | 1022.94 ± 10
x2 = 0.057 | 1019.68 ± 10
x2 = 0.112 | 1016.11 ± 10
x2 = 0.202 | 1009.68 ± 10
x2 = 0.26 | 1006.3 ± 10
x2 = 0.318 | 1000.45 ± 10
x2 = 0.388 | 995.25 ± 10

CCCC[N+]1(C)CCCC1.N#CN=C=[N-] [1-butyl-1-methylpyrrolidinium dicyanamide] + c1ccccc1
[2], 283.15 K
Conditions | mass density [kg/m3]
x2 = 0 | 1021.84 ± 10
x2 = 0.051 | 1020.09 ± 10
x2 = 0.099 | 1018.22 ± 10
x2 = 0.199 | 1014.33 ± 10
x2 = 0.293 | 1009.95 ± 10
x2 = 0.401 | 1004.03 ± 10
x2 = 0.505 | 996.7 ± 10
x2 = 0.61 | 987.41 ± 10
x2 = 0.637 | 984.55 ± 10
x2 = 0.665 | 981.11 ± 10
x2 = 0.69 | 978.4 ± 10
x2 = 0.718 | 973.87 ± 10

CCCC[N+](C)(C)C.O=S(=O)([N-]S(=O)(=O)C(F)(F)F)C(F)(F)F [butyltrimethylammonium bis(trifluoromethylsulfonyl)imide] + CCc1ccccc1
[2], 343.15 K
Conditions | mass density [kg/m3]
x2 = 0 | 1348.32 ± 10
x2 = 0.037 | 1345.32 ± 10
x2 = 0.099 | 1330.93 ± 10
x2 = 0.245 | 1295.53 ± 10
x2 = 0.309 | 1271.7 ± 11
x2 = 0.397 | 1243.17 ± 11
x2 = 0.448 | 1221.88 ± 11
x2 = 0.498 | 1201.31 ± 11

CCCC[N+](C)(CCCC)CCCC.O=S(=O)([N-]S(=O)(=O)C(F)(F)F)C(F)(F)F [tributylmethylammonium bis((trifluoromethyl)sulfonyl)imide] + Cc1ccccc1C
[2], 343.15 K
Conditions | mass density [kg/m3]
x2 = 0 | 1224.15 ± 10
x2 = 0.152 | 1204.93 ± 10
x2 = 0.26 | 1188.05 ± 10
x2 = 0.365 | 1168.37 ± 10
x2 = 0.506 | 1134.17 ± 10
x2 = 0.623 | 1096.91 ± 11
x2 = 0.751 | 1046.57 ± 11

CCCC[N+]1(C)CCCC1.N#CN=C=[N-] [1-butyl-1-methylpyrrolidinium dicyanamide] + Cc1ccccc1C
[2], 283.15 K
Conditions | mass density [kg/m3]
x2 = 0 | 1022.97 ± 10
x2 = 0.001 | 1022.98 ± 10
x2 = 0.102 | 1018.02 ± 10
x2 = 0.202 | 1011.22 ± 10
x2 = 0.305 | 1005.51 ± 10
x2 = 0.385 | 999.83 ± 10
x2 = 0.433 | 997.35 ± 10

CCCC[N+]1(C)CCCC1.O=S(=O)([O-])C(F)(F)F [1-butyl-1-methylpyrrolidinium trifluoromethanesulfonate] + CCc1ccccc1
[2], 283.15 K
Conditions | mass density [kg/m3]
x2 = 0 | 1263.17 ± 10
x2 = 0.044 | 1254.99 ± 10
x2 = 0.107 | 1240.68 ± 10
x2 = 0.209 | 1220.18 ± 10
x2 = 0.309 | 1193.98 ± 10
x2 = 0.391 | 1174.45 ± 10
x2 = 0.42 | 1164.28 ± 11

CCCC[N+]1(C)CCCC1.N#CN=C=[N-] [1-butyl-1-methylpyrrolidinium dicyanamide] + CCc1ccccc1
[2], 283.15 K
Conditions | mass density [kg/m3]
x2 = 0 | 1022.97 ± 10
x2 = 0.044 | 1020.28 ± 10
x2 = 0.11 | 1016.49 ± 10
x2 = 0.2 | 1010.5 ± 10
x2 = 0.307 | 1002.43 ± 10
x2 = 0.359 | 997.98 ± 10
x2 = 0.397 | 994.71 ± 10

CCCC[N+]1(C)CCCC1.O=S(=O)([N-]S(=O)(=O)C(F)(F)F)C(F)(F)F + Cc1ccccc1C
[2], 283.15 K
Conditions | mass density [kg/m3]
x2 = 0 | 1407.6 ± 10
x2 = 0.21 | 1360.77 ± 10
x2 = 0.409 | 1303.44 ± 11
x2 = 0.622 | 1224.4 ± 11
x2 = 0.673 | 1207.6 ± 11

CCCC[N+](C)(C)C.O=S(=O)([N-]S(=O)(=O)C(F)(F)F)C(F)(F)F [butyltrimethylammonium bis(trifluoromethylsulfonyl)imide] + c1ccccc1
[2], 343.15 K
Conditions | mass density [kg/m3]
x2 = 0 | 1348.32 ± 10
x2 = 0.096 | 1335.57 ± 10
x2 = 0.2 | 1316.52 ± 10
x2 = 0.308 | 1288.49 ± 10
x2 = 0.414 | 1262.43 ± 10
x2 = 0.512 | 1229.56 ± 11
x2 = 0.613 | 1185.89 ± 11
x2 = 0.762 | 1105.62 ± 11

CCCC[N+](C)(CCCC)CCCC.O=S(=O)([N-]S(=O)(=O)C(F)(F)F)C(F)(F)F [tributylmethylammonium bis((trifluoromethyl)sulfonyl)imide] + Cc1ccccc1
[2], 343.15 K
Conditions | mass density [kg/m3]
x2 = 0 | 1224.15 ± 10
x2 = 0.055 | 1218.2 ± 10
x2 = 0.104 | 1212.25 ± 10
x2 = 0.199 | 1200.37 ± 10
x2 = 0.303 | 1184.47 ± 10
x2 = 0.411 | 1163.41 ± 10
x2 = 0.586 | 1117.48 ± 11
x2 = 0.799 | 1036.86 ± 11
x2 = 0.84 | 1016.08 ± 11

CCCC[N+]1(C)CCCC1.O=S(=O)([N-]S(=O)(=O)C(F)(F)F)C(F)(F)F + c1ccccc1
[2], 283.15 K
Conditions | mass density [kg/m3]
x2 = 0 | 1410.45 ± 10
x2 = 0.106 | 1394.11 ± 10
x2 = 0.309 | 1355.03 ± 10
x2 = 0.505 | 1296.91 ± 11
x2 = 0.714 | 1203.57 ± 11
x2 = 0.813 | 1133.23 ± 12

CCCC[N+]1(C)CCCC1.N#CN=C=[N-] [1-butyl-1-methylpyrrolidinium dicyanamide] + Cc1ccccc1
[2], 283.15 K
Conditions | mass density [kg/m3]
x2 = 0 | 1022.97 ± 10
x2 = 0.054 | 1020.33 ± 10
x2 = 0.103 | 1018.02 ± 10
x2 = 0.205 | 1012.43 ± 10
x2 = 0.304 | 1006.23 ± 10
x2 = 0.387 | 1000.63 ± 10
x2 = 0.454 | 993.84 ± 10
x2 = 0.528 | 986.94 ± 10

CCCC[N+]1(C)CCCC1.O=S(=O)([N-]S(=O)(=O)C(F)(F)F)C(F)(F)F + Cc1ccc(C)cc1
[2], 283.15 K
Conditions | mass density [kg/m3]
x2 = 0 | 1407.6 ± 10
x2 = 0.207 | 1361.17 ± 10
x2 = 0.357 | 1315.5 ± 11
x2 = 0.507 | 1254.4 ± 11
x2 = 0.617 | 1193.73 ± 11

CCCC[N+](C)(C)C.O=S(=O)([N-]S(=O)(=O)C(F)(F)F)C(F)(F)F [butyltrimethylammonium bis(trifluoromethylsulfonyl)imide] + Cc1ccccc1
[2], 343.15 K
Conditions | mass density [kg/m3]
x2 = 0 | 1346.21 ± 10
x2 = 0.1 | 1333.19 ± 10
x2 = 0.202 | 1310.32 ± 10
x2 = 0.316 | 1279.85 ± 10
x2 = 0.404 | 1252.66 ± 11
x2 = 0.502 | 1211.78 ± 11
x2 = 0.61 | 1167.51 ± 11
x2 = 0.643 | 1150.47 ± 11
